Where two headings read alike, the source gives them in different places.
Assays:
rice stem borer = experiment: Insecticidal effect on rice stem borer, 3rd-instar larvae (rice seedling dip); format: in vivo, Chilo suppressalis; details: after 72 hours, 25°C
Method in brief: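 Wettable-powder formulations were diluted in water to set concentrations, and rice seedlings were dipped in them. Ten 3rd-instar larvae were placed per capped cup with the treated seedlings and held at 25°C.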

tobacco cutworm [1] = experiment: Insecticidal effect on tobacco cutworm (cabbage leaf dip); format: in vivo, Prodenia litura; details: after 48 hours, 25°C
Method in brief: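 Cabbage leaves dipped in water-diluted emulsifiable concentrate (two formulations, tests A and B) and air-dried were fed to 3rd-instar tobacco cutworm larvae at 25°C. Percent mortality scored after 48 hours; 3 replicates of 30 insects per compound.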

tobacco cutworm [2] = experiment: Long-lasting insecticidal effect on tobacco cutworm (sprayed cabbage plantlet); format: in vivo, Prodenia litura; details: concentration 500 (unit not given), mortality after 48 hours; for Percent Mortality After Application 3rd Day: leaves cut on 3rd day; for Percent Mortality After Application 5th Day: leaves cut on 5th day; for Percent Mortality After Application 7th Day: leaves cut on 7th day; for Percent Mortality After Application 10th Day: leaves cut on 10th day; for Percent Mortality After Application 15th Day: leaves cut on 15th day
Method in brief: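 Cabbage plantlets sprayed with water-diluted emulsifiable concentrate and held in a greenhouse; leaves cut on days 3, 5, 7, 10 and 15 and fed to 3rd-instar larvae at 25°C. Percent mortality scored after 48 h; 3 replicates, 30 insects each.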

diamond back moth = experiment: Insecticidal effect on diamond-back moth (cabbage leaf dip); format: in vivo, Plutella xylostella; details: 100 ppm, after 72 hours, 25°C
Description: (§1) (A) An emulsifiable concentrate prepared as described in Formulation Example 1 was diluted with water to a predetermined concentration and leaves of a cabbage were dipped into the dilute emulsion for 10 seconds followed by drying in air, and charged in a 60 ml volume cup made of vinyl chloride resin. Then, thirty 3rd-instar larvae of diamond back moth were put in each cup, and the cups were kept at 25°C. After 72 hours, percent mortality was assessed and the test was replicated 3 times for each treatment.
as §1, with “(B) An” for “(A) An”, “Example 4” for “Example 1”

smaller tea tortrix = experiment: Insecticidal effect on smaller tea tortrix (apple leaf dip); format: in vivo; details: Adoxophyes orana, foliar; Table 9; 100 ppm; after 72 hours, 25°C; wettable powder as Formulation Example 5; read-out: Percent Mortality
Description: Leaves of an apple tree were dipped into a dilute water suspension of a wettable powder prepared as described in Formulation Example 5. After drying in air, the leaves were charged in a 60 ml volume cup made of vinyl chloride resin, and […] 3rd-instar larvae of smaller tea tortrix were put in each cup. The cups were capped and kept at 25°C. After 72 hours, the number of the surviving insects and the dead insects were recorded to determine percent mortality. In each treatment, 3 cups and 30 insects were used in total.

Apple = experiment: Phytotoxicity on various crops; format: in vivo; design: key: Symbol — indicates that no toxicity was observed; details: 500 ppm sprayed; checked visually after 10 days
Method in brief: (§2)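 Visual phytotoxicity rating at 10 days post-spray, greenhouse-grown plants. Treatment: EC formulation, 500 ppm a.i. in water, sprayed to full coverage. n=3 per compound.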

Beet = experiment: Phytotoxicity on various crops; format: in vivo; design: key: Symbol — indicates that no toxicity was observed; details: 500 ppm sprayed; checked visually after 10 days
Method in brief: as §2

Cabbage = experiment: Phytotoxicity on various crops; format: in vivo; design: key: Symbol — indicates that no toxicity was observed; details: 500 ppm sprayed; checked visually after 10 days
Method in brief: as §2

Cotton = experiment: Phytotoxicity on various crops; format: in vivo; design: key: Symbol — indicates that no toxicity was observed; details: 500 ppm sprayed; checked visually after 10 days
Method in brief: as §2

Cucumber = experiment: Phytotoxicity on various crops; format: in vivo; design: key: Symbol — indicates that no toxicity was observed; details: 500 ppm sprayed; checked visually after 10 days
Method in brief: as §2

Green Pepper = experiment: Phytotoxicity on various crops; format: in vivo; design: key: Symbol — indicates that no toxicity was observed; details: 500 ppm sprayed; checked visually after 10 days
Method in brief: as §2

Kidney Bean = experiment: Phytotoxicity on various crops; format: in vivo; design: key: Symbol — indicates that no toxicity was observed; details: 500 ppm sprayed; checked visually after 10 days
Method in brief: as §2

Rice = experiment: Phytotoxicity on various crops; format: in vivo; design: key: Symbol — indicates that no toxicity was observed; details: 500 ppm sprayed; checked visually after 10 days
Method in brief: as §2

Tea = experiment: Phytotoxicity on various crops; format: in vivo; design: key: Symbol — indicates that no toxicity was observed; details: 500 ppm sprayed; checked visually after 10 days
Method in brief: as §2

Tomato = experiment: Phytotoxicity on various crops; format: in vivo; design: key: Symbol — indicates that no toxicity was observed; details: 500 ppm sprayed; checked visually after 10 days
Method in brief: as §2

egg plant = experiment: Phytotoxicity on various crops; format: in vivo; design: key: Symbol — indicates that no toxicity was observed; details: 500 ppm sprayed; checked visually after 10 days
Method in brief: as §2

apple leaf miner = experiment: Insecticidal effect on apple leaf miner (sprayed apple seedling); format: in vivo, Lithocolletis ringoniella; details: Phyllonorycter ringoniella, 336 h, 500 ppm, fourteen days after spraying
Description: (§3) (A) A dilute water suspension of a wettable powder prepared as described in Formulation Example 5 was sufficiently sprayed using a spray-gun on a seedling of an apple tree planted in a bisque flower pot to which plant larvae of apple leaf miner just after hatching were parasitic. Thereafter the pots were placed in a green house. Fourteen days after the spraying, bores made by larvae were broken and percent mortality was assessed for all the leaves of each seedling. Three pots were used for each treatment.
as §3, with “(B)” for “(A)”, “7” for “5”

[3] = Table 1, 100 ppm, wettable powder as Formulation Example 5
[4] = Table 1, 500 ppm, wettable powder as Formulation Example 5
[5] = Table 2, 100 ppm, wettable powder as Formulation Example 7
[6] = Table 3, 500 ppm, emulsifiable concentrate as Formulation Example 1
[7] = Table 4, 100 ppm, emulsifiable concentrate as Formulation Example 3
[8] = Table 7, emulsifiable concentrate as Formulation Example 1
[9] = Table 8, emulsifiable concentrate as Formulation Example 4
[10] = Table 10, wettable powder as Formulation Example 5, read-out: Percent Morality (%)

SMILES | Percent Mortality (%) (rice stem borer; [3]) | Percent Mortality (%) (rice stem borer; [4]) | Percent Mortality (%) (rice stem borer; [5]) | Percent Mortality (%) (tobacco cutworm [1]; [6]) | Percent Mortality (%) (tobacco cutworm [1]; [7]) | Percent Mortality (%) (diamond back moth; [8]) | Percent Mortality (%) (diamond back moth; [9]) | mortality at 100 ppm (smaller tea tortrix) | Phytotoxicity: Apple (Apple) | Phytotoxicity: Beet (Beet) | Phytotoxicity: Cabbage (Cabbage) | Phytotoxicity: Cotton (Cotton) | Phytotoxicity: Cucumber (Cucumber) | Phytotoxicity: Green Pepper (Green Pepper) | Phytotoxicity: Kidney Bean (Kidney Bean) | Phytotoxicity: Rice (Rice) | Phytotoxicity: Tea (Tea) | Phytotoxicity: Tomato (Tomato) | Phytotoxicity: Egg Plant (egg plant) | mortality at 500 ppm (apple leaf miner; [10]) | further results
CCCSP(=O)(OCC)Oc1ccc2c(c1)OC(C)CC2(C)C (centres unmarked) [compound 17] | 100% | 100% | 100% | 100% | 100% | 100% | 100% | 100% | — | — | — | — | — | — | — | — | — | — | — |  | Percent Mortality After Application 3rd Day (tobacco cutworm [2]; Table 5): 100%; Percent Mortality After Application 5th Day (tobacco cutworm [2]; Table 5): 100%; Percent Mortality After Application 7th Day (tobacco cutworm [2]; Table 5): 100%; Percent Mortality After Application 10th Day (tobacco cutworm [2]; Table 5): 100%; Percent Mortality After Application 15th Day (tobacco cutworm [2]; Table 5): 53.3%; Percent Mortality After Application 3rd Day (tobacco cutworm [2]; Table 6): 100%; Percent Mortality After Application 5th Day (tobacco cutworm [2]; Table 6): 100%; Percent Mortality After Application 7th Day (tobacco cutworm [2]; Table 6): 100%; Percent Mortality After Application 10th Day (tobacco cutworm [2]; Table 6): 93.3%; Percent Mortality After Application 15th Day (tobacco cutworm [2]; Table 6): 30%; Percent Mortality After Application Immediately after Application (tobacco cutworm [2]; Table 6): 100%
CCOP(=O)(Oc1ccc2c(c1)OC(C)(C)C=C2C)SC(C)CC (centres unmarked) [Compound No. 18] | 100% | 100% | 100% | 100% | 100% |  | 83.3% | 100% | — | — | — | — | — | — | — | — | — | — | — | 100% | 
CCC(C)SP(=O)(OC)Oc1ccc2c(c1)OC(C)=CC2(C)C (centres unmarked) [Compound No. 16, O-methyl-S-sec-butyl-O-(2,4,4-trimethyl-1,4-benzopyran-7-yi) phosphorothioate] | 100% | 100% |  | 100% |  | 100% |  | 100% | — | — | — | — | — | — | — | — | — | — | — | 100% | Percent Mortality After Application 3rd Day (tobacco cutworm [2]; Table 5): 100%; Percent Mortality After Application 5th Day (tobacco cutworm [2]; Table 5): 100%; Percent Mortality After Application 7th Day (tobacco cutworm [2]; Table 5): 100%; Percent Mortality After Application 10th Day (tobacco cutworm [2]; Table 5): 100%; Percent Mortality After Application 15th Day (tobacco cutworm [2]; Table 5): 100%
CCOP(=O)(Oc1cccc2c1C(C)=CC(C)(C)O2)SC(C)CC (centres unmarked) [compound 23] | 100% | 100% | 100% | 100% | 100% | 100% | 100% | 100% | — | — | — | — | — | — | — | — | — | — | — | 100% | mortality at 500 ppm (apple leaf miner; Table 11, wettable powder as Formulation Example 7, read-out: Percent Mortality (%)): 100%

From patent publication EP0054589B1, “Organic phosphoric acid ester derivatives, a process for preparing the same and insecticidal, miticidal or nematocidal compositions containing the same” (priority 1980, dated 1982)
